The record followed here is patent US11851410B2, “Sensors for detection of negatively charged phosphate-containing membranes and membrane components” (THE GOVERNING COUNCIL OF THE UNIVERSITY OF TORONTO, priority 2017, dated 2023).

Molecules are shown by their SMILES.

Test [1] has as its system TOCL (CL) negatively charged vesicles. The experiment in a line: Serial dilution vesicle fluorescence intensity experiments, CL vesicles. As to conditions: for ΔΔFI: sensor 25 μM (PSVue™380 1 μM), 50 mM HEPES, 5% DMSO, pH 7.5. Also noted: ΔΔFI: unit not given here. It counts as binding. From the text:
(§1) The following equations were used for the calculations: […]

In test [2] the test system is DOPS (PS) negatively charged vesicles. The experiment in a line: Serial dilution vesicle fluorescence intensity experiments, PS vesicles. Format: binding. Also noted: ΔΔFI: unit not given here. As to conditions: sensor 25 μM (PSVue™380 1 μM), 50 mM HEPES, 5% DMSO, pH 7.5.
Source text: as §1
It is estimated that a mammalian cell membrane is composed of 10% PS, with the majority located on the inner leaflet in the healthy state. However, during the early stages of apoptosis, this asymmetry is lost and PS becomes symmetrically distributed resulting in ˜5% of PS externalized to the outer leaflet. To address if compounds of this application could potentially be used for the detection of the PS externalization event during apoptosis, the exemplary sensors were screened against PC vesicles containing biologically-relevant levels of PS ([…]; assuming that approximately half of the lipid head groups will be exposed to the interior of the vesicle). The resulting ΔΔFI for vesicle concentrations up to 40 μM are presented in FIG. 7 and Table 1 (ΔΔFI for vesicle concentrations up to 200 μM is presented in FIG. 4).

For test [3], the system named is POPA (PA) negatively charged vesicles. Briefly: Serial dilution vesicle fluorescence intensity experiments, PA vesicles. Format: binding. The settings on record: PA vesicles, sensor 25 μM (PSVue™380 1 μM), 50 mM HEPES, 5% DMSO, pH 7.5.
Source text: as §1

Test [4] concerns DOPS (PS) negatively charged vesicles. Briefly: Serial dilution vesicle fluorescence intensity experiments, PS vesicles. Format: binding. Also noted: ΔΔFI: unit not given here. As to conditions: sensor 25 μM (PSVue™380 1 μM), 50 mM HEPES, 5% DMSO, pH 7.5. This is another data set of the same source.
Test [5] has as its system POPE (PE) zwitterionic vesicles. Briefly: Serial dilution vesicle fluorescence intensity experiments, PE vesicles. It counts as binding. As to conditions: sensor 25 μM (PSVue™380 1 μM), 50 mM HEPES, 5% DMSO, pH 7.5.
Source text: as §1

Test [6] relates to E. coli K-12 BW25113 cells in presence of MV4-11 cells. The experiment in a line: Fluorescence microscopy experiments with bacteria and mammalian cells. Format: cell-based. As to conditions: 10^8 cells/mL E. coli; sensor 40 μM. As to the method: MV4-11 mammalian cells and bacteria samples were both added to a microscope chamber slide and left to incubate for 5 minutes. Visualization was performed first in bright field and then auto-fluorescence was recorded with UV excitation. Sensors were then added into the chamber at appropriate concentrations and fluorescence emission was captured.

Test [7] has as its system POPG (PG) negatively charged vesicles. The experiment in a line: Serial dilution vesicle fluorescence intensity experiments, PG vesicles. Format: binding. The settings on record: sensor 25 μM (PSVue™380 1 μM), 50 mM HEPES, 5% DMSO, pH 7.5.
Source text: as §1

As for `c1ccc(CN(Cc2ccccn2)Cc2ccc3ccc4cccc5ccc2c3c45)nc1` [I-5], the “sensitivity compared to PSVue™380, 20 μM CL vesicles” value in test [1] (20 μM CL vesicles) is reported as “comparable”. Besides, the ΔΔFI in test [1] (33% CL vesicles, 5 μM vesicles) is recorded as 2.5; in test [1] (33% CL vesicles, 20 μM vesicles) it was 7.9; in test [1] (CL vesicles (50%), 5 μM vesicles) it was 5; in test [1] (CL vesicles (50%), 20 μM vesicles), 15.9; in test [2] (5% PS vesicles, 5 μM vesicles), 1.4; in test [2] (5% PS vesicles, 20 μM vesicles), 2.6. Further, the ΔΔFI in test [2] (25% PS vesicles, 5 μM vesicles) is 1.9; in test [2] (25% PS vesicles, 20 μM vesicles), 4; in test [3] (5 μM vesicles), 4.4; in test [3] (20 μM vesicles), 14.1; in test [4] (75% PS vesicles, 5 μM vesicles), 5.4; in test [4] (75% PS vesicles, 20 μM vesicles), 16.7. Also, the ΔΔFI is recorded as 2.9 in test [4] (PS vesicles (50%), 5 μM vesicles); 8.8 in test [4] (PS vesicles (50%), 20 μM vesicles); 0.9 in test [5] (5 μM vesicles); 1 in test [5] (20 μM vesicles); 1.7 in test [7] (5 μM vesicles); 3.9 in test [7] (20 μM vesicles). Besides, the “detection of bacterial cells versus mammalian MV4-11 cells by microscopy” value in test [6] is “bacterial cells are detected more readily than mammalian MV4-11 cells”.
